MIC data for 1 compound are collected here from US9980889B2, “Compositions comprising P-hydroxybenzylamine” (DSM IP ASSETS B.V., priority 2012, dated 2018).

Converted amounts (≈) assume the structure as drawn.

Holding throughout (assay): MIC by agar dilution method according to DIN 58 940
Background: In agar dilution the substance is mixed into plates at graded concentrations.

In one assay the test system is P. acnes. It is filed as cell-based, Propionibacterium acnes. The conditions noted are these: Cutibacterium acnes, ATCC11828; P. acnes ATCC 11828; Mueller-Hinton Agar, 36° C., read after 48 h. Here is the method: (§1) The antimicrobial activity was assessed by determination of the Minimum Inhibitory Concentration (MIC) using the agar dilution method according to DIN 58 940 at the Labor L+SAG, D−Bad Bocklet-Grossenbrach.
(§2) Culture plates with a diameter of 5.5 cm were prepared with fresh, kept liquid (50° C.) Mueller-Hinton Agar (double concentrated, Merck 1.05437)/aqua purificata comprising p-Hydroxybenzylamine (pHBA) in the concentrations indicated in Table 1 according to standard methods. After solidifying and drying (about 1 h at 36° C.), the culture plates were inoculated with 1 μl of a suspension of the respective microorganism with the colony forming unit as outlined in table 1. The inoculated plates were then incubated at 36° C. The MIC's (i.e. the concentrations where still no growth could be observed) were determined after 18 h for E. coli, P. aeruginosa and S. aureus; after 48 h for P. acnes and after 78 h for A. brasiliensis and C. albicans. Per sample two culture plates were prepared. As control incubated and non-incubated cultures were used.
The suspensions of the microorganism's No. 1-4 were prepared by homogeneous suspension of 3-5 colonies of the same morphology in physiological NaCl-solution. The suspensions were adjusted such, that the haze corresponded to the Mac Farland standard 1.0 (about 3.0*10^8 KBE*/ml). […] The colony count was determined using a spiral plater system (see table 2).

A further assay has as its system A. brasiliensis. It is filed as cell-based. The conditions noted are these: Aspergillus brasiliensis, ATCC16404; A. brasiliensis ATCC 16404; Mueller-Hinton Agar, 36° C., read after 78 h. Here is the method: as §1, §2
(§3) The suspensions of the microorganism's No. 1-4 were prepared by homogeneous suspension of 3-5 colonies of the same morphology in physiological NaCl-solution. The suspensions were adjusted such, that the haze corresponded to the Mac Farland standard 1.0 (about 3.0*10^8 KBE*/ml). For the preparation of the suspensions of the microorganisms 5 and 6, the microorganisms have been taken with a sterile swab and diluted in an amount of physiological NaCl solution such, that the haze corresponded to the Mac Farland standard 1.0. Afterwards the suspensions of the microorganisms 1 and 3-6 have been further diluted with physiological NaCl-solution in a ratio of 1:10. The colony count was determined using a spiral plater system (see table 2).

The next assay deals with S. aureus. It counts as cell-based. The conditions noted are these: Staphylococcus aureus, ATCC6538; S. aureus ATCC 6538; Mueller-Hinton Agar, 36° C., read after 18 h. Here is the method: as §1, §2, §3
For another assay, the system named is E. coli. It counts as cell-based. The conditions noted are these: Escherichia coli, ATCC8739; E. coli ATCC 8739; Mueller-Hinton Agar, 36° C., read after 18 h. How it is done: as §1, §2, §3
The next assay concerns P. aeruginosa. It counts as cell-based. The conditions noted are these: Pseudomonas aeruginosa, ATCC9027; P. aeruginosa ATCC 9027; Mueller-Hinton Agar, 36° C., read after 18 h. How it is done:
as §1, §2, §3

The next assay has as its system C. albicans. It counts as cell-based. The conditions noted are these: Candida albicans, ATCC10231; C. albicans ATCC 10231; Mueller-Hinton Agar, 36° C., read after 78 h. Here is the method: as §1, §2, §3

In the case of `NCc1ccc(O)cc1` [pHBA, p-Hydroxybenzylamine], the MIC (as a rule, the lowest concentration found to suppress growth) was determined as 7900 µg/mL (≈ 64.1 mM) in the assay on P. acnes; 5270 µg/mL (≈ 42.8 mM) with A. brasiliensis; 5270 µg/mL (≈ 42.8 mM) in the assay on S. aureus; 5270 µg/mL (≈ 42.8 mM) with E. coli; 5270 µg/mL (≈ 42.8 mM) against P. aeruginosa; 5270 µg/mL (≈ 42.8 mM) with C. albicans.
